The target in one data set is T1, PPARα-RXRα heterodimer (Homo sapiens, UniProt Q07869).
T1 construct: expressed in transfected cells; host or cells: COS-1 (transient; pMCMVneo-hPPARα + pMCMVneo-hRXRα)
T1 sequence (Q07869 1-468): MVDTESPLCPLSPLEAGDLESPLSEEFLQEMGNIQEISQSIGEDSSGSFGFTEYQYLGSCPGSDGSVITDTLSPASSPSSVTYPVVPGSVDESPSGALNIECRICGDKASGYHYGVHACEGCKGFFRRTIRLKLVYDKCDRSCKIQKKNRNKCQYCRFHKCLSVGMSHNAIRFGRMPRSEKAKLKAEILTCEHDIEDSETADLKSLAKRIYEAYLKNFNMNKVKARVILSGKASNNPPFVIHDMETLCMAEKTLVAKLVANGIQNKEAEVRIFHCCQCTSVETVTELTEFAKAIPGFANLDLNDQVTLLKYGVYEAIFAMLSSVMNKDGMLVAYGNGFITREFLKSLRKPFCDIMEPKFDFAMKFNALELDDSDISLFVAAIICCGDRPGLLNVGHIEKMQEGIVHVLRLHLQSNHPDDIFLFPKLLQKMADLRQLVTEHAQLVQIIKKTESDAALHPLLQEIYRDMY
T1 sequence (P19793 1-462 partner): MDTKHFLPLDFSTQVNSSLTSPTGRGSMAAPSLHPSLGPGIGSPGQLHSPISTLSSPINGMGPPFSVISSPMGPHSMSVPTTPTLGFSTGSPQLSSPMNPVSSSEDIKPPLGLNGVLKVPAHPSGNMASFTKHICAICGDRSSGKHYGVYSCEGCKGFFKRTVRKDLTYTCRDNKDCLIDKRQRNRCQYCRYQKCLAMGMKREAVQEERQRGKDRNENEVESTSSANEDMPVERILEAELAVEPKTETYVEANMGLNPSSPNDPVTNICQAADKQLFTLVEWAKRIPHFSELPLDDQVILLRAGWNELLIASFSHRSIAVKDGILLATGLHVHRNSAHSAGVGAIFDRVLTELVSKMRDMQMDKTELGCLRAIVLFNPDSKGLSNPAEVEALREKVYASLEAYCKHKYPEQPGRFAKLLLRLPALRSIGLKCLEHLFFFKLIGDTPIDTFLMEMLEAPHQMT
Briefly: PPARα-RXRα heterodimer ligand activity (luciferase reporter, transfected COS-1 cells). Type of data set: cell-based. The conditions noted are these: luciferase activity at 10 nM compound relative to control without compound as 1. On the procedure: (§1) At 18 to 24 hours after transfection carried out in Reference Example 12a, COS-1 cells were collected, suspended in DMEM medium [manufactured by Life Technologies, Inc., USA] containing 0.1% BSA (fatty acid-free) (produced by Waco Pure Chemicals Industries, Ltd.), and inoculated to each well of a 96-well white plate (produced by Corning, USA) at 1×10^4 cells/well in 80 μl. Subsequently, 20 μl of a test compound was added, and the plate was incubated at 37° C. in a carbon dioxide gas incubator for 36 to 48 hours. After removal of the medium from the 96-well white plate, 40 μl of PicaGene LT 7.5 (produced by Waco Pure Chemicals Industries, Ltd.) diluted twofold with HBSS (HANKS' BALANCED SALT SOLUTION) (produced by BIO WHITTAKER) was added, and after stirring, the luciferase activity was determined using 1420 ARVO Multilabel Counter [produced by Wallac].
The fold induction was calculated from the luciferase activity for the well to which 10 nM of the compound is added, relative to the luciferase activity of a control to which the compound is not added as 1. Results are shown in [Table 3].
(§2) A COS-1 cell was inoculated in a cell culture flask (produced by Corning, USA) of 150 cm^2 at 5×10^6 cells/50 ml, and incubated under the conditions of 37° C. and 5% CO2 for 24 hours. Transfection was carried out with lipofectamine (produced by Invitrogen, USA). A transfection mixture solution was prepared by mixing 125 μl of lipofectamine, 100 μl of PLUS Reagent, 2.5 μg of pMCMVneo-hPPARα (obtained in Reference Example 11a), 2.5 μg of pMCMVneo-hRXRα (obtained in Reference Example 4a), 5 μg of reporter plasmid pGL3-4ERPP-TK neo (obtained in Reference Example 5a) and 5 μg of pRL-tk [produced by Promega, USA] with 5 ml of opti-MEM (produced by Invitrogen, USA). To COS-1 cell washed with opti-MEM, the above-mentioned transfection mixture solution and 20 ml of opti-MEM were added, and then incubated under the conditions of 37° C. and 5% CO2 for 3 hours. Then, 25 ml of DMEM medium [manufactured by Life Technologies, Inc., USA] containing 0.1% fatty acid-free bovine serum albumin (BSA) (produced by Waco Pure Chemicals Industries, Ltd.) was added thereto, and then incubated under the conditions of 37° C. and 5% CO2 for 18 to 24 hours.

For the next data set, the target named is T2, PPARδ-RXRα heterodimer (Homo sapiens, UniProt Q03181).
T2 construct: expressed in transfected cells; host or cells: COS-1 (transient; pMCMVneo-hPPARδ + pMCMVneo-hRXRα)
T2 sequence (Q03181 1-441): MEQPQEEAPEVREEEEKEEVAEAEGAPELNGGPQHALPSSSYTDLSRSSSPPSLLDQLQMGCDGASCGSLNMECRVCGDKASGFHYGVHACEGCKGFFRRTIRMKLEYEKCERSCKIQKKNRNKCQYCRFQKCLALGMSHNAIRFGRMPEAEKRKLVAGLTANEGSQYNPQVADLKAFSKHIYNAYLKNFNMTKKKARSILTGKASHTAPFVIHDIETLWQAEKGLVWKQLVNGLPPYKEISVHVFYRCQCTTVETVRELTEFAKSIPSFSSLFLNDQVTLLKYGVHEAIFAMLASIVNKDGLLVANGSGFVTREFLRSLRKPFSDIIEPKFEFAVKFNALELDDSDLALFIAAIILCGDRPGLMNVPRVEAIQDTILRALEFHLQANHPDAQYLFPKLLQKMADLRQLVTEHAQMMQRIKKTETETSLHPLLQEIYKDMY
T2 sequence (P19793 1-462 partner): T1 sequence (P19793 1-462 partner)
As to the kind of experiment: PPARδ-RXRα heterodimer ligand activity (luciferase reporter, transfected COS-1 cells). Type of data set: cell-based. As to conditions: luciferase activity at 10 nM test compound relative to non-administration group as 1. On the procedure:
as §1, with “Example 9a,” for “Example 12a,”, “0.1% fatty acid-free bovine serum albumin (BSA)” for “0.1% BSA (fatty acid-free)”, “incubated under the conditions of” for “incubated at”, “C. and 5% CO2” for “C. in a carbon dioxide gas incubator”, “of PicaGene.” for “of PicaGene”
The fold induction was calculated from the luciferase activity for addition of each 10 nM of the test compound relative to the luciferase activity of the test compound non-administration group as 1. Results are shown in [Table 2].
as §2, with “ml, and the plate was incubated under” for “ml, and incubated under”, “μg of pMCMVneo-hPPARδ (obtained in” for “μg of pMCMVneo-hPPARα (obtained in”, “Reference Example 3a), 2.5 μg” for “Reference Example 11a), 2.5 μg”, “USA). To the COS-1 cell” for “USA). To COS-1 cell”
(In general: In a reporter assay the amount or activity of a reporter protein is the signal.)

The target of the next data set is T3, human GPR40 (Homo sapiens, UniProt O14842).
T3 construct: expressed in transfected cells; host or cells: CHO cell strain (No. 104)
Briefly: Receptor function regulating action (agonist action) for GPR40, intracellular calcium by FLIPR in CHO cells. Type of data set: cell-based. The conditions noted are these: CHO cells expressing human GPR40; change of fluorescence intensity at 30 seconds after reaction initiation. On the procedure:
CHO cell strain (No. 104) which have had expressed human GPR40 was diluted to contain 3×10^4 cells/100 μL, and added to a Black walled 96-well plate (Costar) at 100 μL/well, and incubated overnight in CO2 incubator. Change of intracellular calcium concentration was measured with FLIPR (Molecular Device). The method is as follows. 50 μg of Fluo-3AM (DOJIN) was dissolved in 21 μL of DMSO (DOJIN), and the same amount of 20% pluronic acid (Molecular Probes) was further added thereto, and the mixture was mixed. The mixture was added to 10.6 mL of an assay buffer [prepared by adding 10 mL of solution which was produced by adding 20 mL of 1 M HEPES (pH 7.4) (DOJIN) to 1 L of HBSS (Invitrogen), dissolving 710 mg of probenecid (Sigma) in 5 mL of 1N NaOH, and further adding 5 mL of the above-mentioned HBSS/HEPES solution thereto and mixing it.] containing 105 μL of fetal bovine serum, to give a fluorescent dye solution. The medium of the cell plate was removed, and immediately, the fluorescent dye solution was added at 100 μL/well, and incubated in CO2 incubator for 1 hour, allowing the fluorescent dye to be incorporated into the cells. The cells after incubation were washed with the above-mentioned assay buffer. The compound to be added to the cells was diluted with the assay buffer to each concentration, added to the plate for the test sample. After conducting the above-mentioned pretreatment, intracellular calcium concentration change after adding the compound was measured in FLIPR to investigate the agonist action. By dose-response curve with the change of fluorescence intensity value at 30 seconds after reaction initiation, EC50 value was calculated.
(Calcium flux is commonly read through the fluorescence of an indicator in the cells.)

A word on the fold induction: it is the ratio of treated to control signal. Lower therefore signals little rise in signal. Broadly, the melting point is the temperature of the solid-liquid transition. The term EC50 denotes the midpoint of the concentration-response curve.

T3 sequence (O14842 whole entry): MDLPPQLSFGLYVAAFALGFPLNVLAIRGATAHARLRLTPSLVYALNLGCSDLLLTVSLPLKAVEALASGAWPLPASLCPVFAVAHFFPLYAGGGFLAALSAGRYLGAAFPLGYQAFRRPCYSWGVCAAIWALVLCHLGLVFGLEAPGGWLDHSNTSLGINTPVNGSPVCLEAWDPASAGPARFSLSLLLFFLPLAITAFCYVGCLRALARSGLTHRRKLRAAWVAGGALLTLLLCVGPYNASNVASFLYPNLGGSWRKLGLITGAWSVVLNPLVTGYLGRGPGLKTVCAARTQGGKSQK

With `Cc1oc(-c2ccc(F)cc2)cc1C(=O)Nc1cccc(CSCC(=O)O)c1` [Example 1, [(3{[5-(4-Fluorophenyl)-2-methyl-3-furoyl]amino}benzyl)thio]acetic acid], the fold induction at 0.01 µM at PPARα-RXRα heterodimer was determined as 10.2.

In the case of `CC(C)c1oc(-c2ccc(C(F)(F)F)cc2)cc1C(=O)Nc1cccc(CSCC(=O)O)c1` [Example 2(1), {[3-({2-Isopropyl-5-[4-(trifluoromethyl)phenyl]-3-furoyl}amino)benzyl]thio}acetic acid], the fold induction at 0.01 µM on PPARα-RXRα heterodimer turned out to be 10.9.

`CCc1oc(-c2ccc(C(F)(F)F)cc2)cc1COc1cccc(CSCC(=O)O)c1` [Example 5(5)] had a fold induction at 0.01 µM at PPARα-RXRα heterodimer of 10.1.

The molecule `CCc1oc(-c2ccc(C(F)(F)F)cc2)cc1COc1ccc(CCC(=O)O)c(C)c1` [Example 5(9), 3-[4-({2-Ethyl-5-[4-(trifluoromethyl)phenyl]-3-furyl}methoxy)-2-methylphenyl]propionic acid] had a melting point of 95 to 97 °C. Besides, at PPARδ-RXRα heterodimer, the fold induction at 0.01 µM worked out at 6.7.

Take `Cc1oc(-c2ccc(F)cc2)cc1COc1cccc(CSCC(=O)O)c1` [Example 6(1), [(3-{[5-(4-Fluorophenyl)-2-methyl-3-furyl]methoxy}benzyl)thio]acetic acid]: the melting point fell in the range of 120 to 122 °C. Besides, the fold induction at 0.01 µM at PPARα-RXRα heterodimer turned out to be 8.9.

On PPARα-RXRα heterodimer, `Cc1oc(-c2ccc(C(F)(F)F)cc2)cc1COc1cccc(CSCC(=O)O)c1` [Example 6(2), {[3-({2-Methyl-5-[4-(trifluoromethyl)phenyl]-3-furyl}methoxy)benzyl]thio}acetic acid] returned a fold induction at 0.01 µM of 9.2.

The molecule `Cc1cc(OCc2cc(-c3ccc(C(F)(F)F)cc3)oc2C)ccc1CCC(=O)O` [Example 6(4), 3-[2-Methyl-4-({2-methyl-5-[4-(trifluoromethyl)phenyl]-3-furyl}methoxy)phenyl]propionic acid] yielded a melting point of 140 to 141 °C. At PPARδ-RXRα heterodimer, the fold induction at 0.01 µM came to 7.4. Besides, the EC50 on human GPR40 came out at 180 nM.

Turning to `Cc1cc(OCCCc2cc(-c3ccc(C(F)(F)F)cc3)oc2C)ccc1CCC(=O)O` [Example 6(24), 3-[2-Methyl-4-(3-{2-methyl-5-[4-(trifluoromethyl)phenyl]-3-furyl}propoxy)phenyl]propionic acid], the melting point was in the range of 125 to 126 °C. In addition, the fold induction at 0.01 µM on PPARδ-RXRα heterodimer is 6.8.

For the molecule `CCc1oc(-c2ccc(C(F)(F)F)cc2)cc1CCCOc1cccc(CC(=O)O)c1` [Example 6(26), [3-(3-{2-Ethyl-5-[4-(trifluoromethyl)phenyl]-3-furyl}propoxy)phenyl]acetic acid], the melting point was 113 to 114 °C. The fold induction at 0.01 µM at PPARδ-RXRα heterodimer stood at 5.6.

`Cc1oc(-c2ccc(F)cc2)cc1COc1cccc(CSC(C)(C)C(=O)O)c1` [Example 6, 2-[(3-{[5-(4-Fluorophenyl)-2-methyl-3-furyl]methoxy}benzyl)thio]-2-methylpropionic acid] showed a fold induction at 0.01 µM on PPARα-RXRα heterodimer of 9.3.

The record behind these values is US7553867B2, “Furan or thiophene derivative and medicinal use thereof” (Takeda Pharmaceutical Company Limited, priority 2002, dated 2009).
